Laboratory results from patent US6699889B2, “Use of glucose uptake enhancer for reducing post-ischemic injury of the heart” (SmithKline Beecham p.l.c., priority 1998, dated 2004).

Legend:
[1] = system: isolated working hearts from STZ-diabetic rats; assay: Isolated working hearts from STZ-diabetic male Wistar rats: baseline ventricular function and zero-flow ischaemia and re-perfusion; conditions: diabetic rat hearts
Description: (§1) A solution of streptozotocin (STZ commercially available) was prepared in citrate buffer (40 mg/ml).
The development of diabetes and its persistence were monitored by serial quantitative measurements of glucose in the urine with reagent strips. On the day of the experiment, the severity of diabetes was assessed by measuring glucose concentrations from blood samples collected at the time of heart excision. Only rats with plasma glucose levels exceeding 20 mM were considered diabetic and included in these experiments.
(§2) Perfusion of isolated hearts: Rats were anaesthetized using thiopental sodium (50 mg/kg body weight intraperitoneally). Hearts from normoglycaemic and one-month STZ-induced diabetic rats, were quickly removed and immersed in ice-cold buffer to produce an immediate cessation of contractility. The aorta was dissected free and then mounted onto a cannula attached to a perfusion apparatus. Retrograde perfusion of the heart was started for 10 min by the Langendorff method and then switched to perfusion using the working-heart technique. […] The perfusate was not recirculated. Preload was held at a pressure of 15 cm H2O and afterload, as well as coronary perfusion pressure, were kept constant at 80 cm H2O.
Stroke volume (ml/beat) was derived by dividing cardiac output by heart rate. […]
(§3) Statistical significance of differences was determined using Student's t-test.

[2] = system: isolated working hearts from male Wistar rats; assay: Isolated working hearts from normal male Wistar rats: baseline ventricular function and recovery after 30 min zero-flow ischaemia and re-perfusion; conditions: normal rat hearts
Description: as §1
An acclimatisation period of at least one week was allowed prior to experiment.
as §2
Stroke volume (ml/beat) was derived by dividing cardiac output by heart rate.
Induction of global ischaemia and re-perfusion: Total ischaemia was initiated by clamping the left atrium and the aortic perfusion tubes and reducing coronary flow to zero for 30 minutes. The hearts were then re-perfused at 37° C. in working heart mode and recovery of ventricular function was followed for 30 minutes.
as §3

CN(CCOc1ccc(CC2SC(=O)NC2=O)cc1)c1ccccn1 (centres unmarked) [Compound (I), 5-[4-[2-(N-methyl-N-(2-pyridyl)amino)ethoxy]benzyl]thiazolidine-2,4-dione]
Protective properties in hearts subjected to zero-flow ischaemia in vitro [1]: protective properties of rapid onset | Protective properties in hearts subjected to zero-flow ischaemia in vitro [2]: protective properties of rapid onset
